# Active and inactive are the calls of the source. No cut-off for these calls is given here.
# What was measured:
# Uterus [1] = assay: Inhibition of oxytocin-induced uterus contraction in non-pregnant Sprague-Dawley rat measured for 300 secs; format: functional, tissue-based
# [2] = target: Rho-associated protein kinase 2 (Homo sapiens) (UniProt O75116); assay: Inhibition of ROCK2 (unknown origin) at 200 uM using MYPT1 as substrate after 30 mins by immunoassay
# Uterus [3] = assay: Inhibition of oxytocin-induced uterus contraction in 20 days pregnant Sprague-Dawley rat at 10^-10 to 10^-5 M measured for 300 secs; format: functional, tissue-based
# Uterus [4] = assay: Inhibition of oxytocin-induced uterus contraction in Sprague-Dawley rat during parturition period at 10^-10 to 10^-5 M measured for 300 secs; format: functional, tissue-based
# Chain of Rho-associated protein kinase 2 (Homo sapiens) (O75116 whole entry, looked up): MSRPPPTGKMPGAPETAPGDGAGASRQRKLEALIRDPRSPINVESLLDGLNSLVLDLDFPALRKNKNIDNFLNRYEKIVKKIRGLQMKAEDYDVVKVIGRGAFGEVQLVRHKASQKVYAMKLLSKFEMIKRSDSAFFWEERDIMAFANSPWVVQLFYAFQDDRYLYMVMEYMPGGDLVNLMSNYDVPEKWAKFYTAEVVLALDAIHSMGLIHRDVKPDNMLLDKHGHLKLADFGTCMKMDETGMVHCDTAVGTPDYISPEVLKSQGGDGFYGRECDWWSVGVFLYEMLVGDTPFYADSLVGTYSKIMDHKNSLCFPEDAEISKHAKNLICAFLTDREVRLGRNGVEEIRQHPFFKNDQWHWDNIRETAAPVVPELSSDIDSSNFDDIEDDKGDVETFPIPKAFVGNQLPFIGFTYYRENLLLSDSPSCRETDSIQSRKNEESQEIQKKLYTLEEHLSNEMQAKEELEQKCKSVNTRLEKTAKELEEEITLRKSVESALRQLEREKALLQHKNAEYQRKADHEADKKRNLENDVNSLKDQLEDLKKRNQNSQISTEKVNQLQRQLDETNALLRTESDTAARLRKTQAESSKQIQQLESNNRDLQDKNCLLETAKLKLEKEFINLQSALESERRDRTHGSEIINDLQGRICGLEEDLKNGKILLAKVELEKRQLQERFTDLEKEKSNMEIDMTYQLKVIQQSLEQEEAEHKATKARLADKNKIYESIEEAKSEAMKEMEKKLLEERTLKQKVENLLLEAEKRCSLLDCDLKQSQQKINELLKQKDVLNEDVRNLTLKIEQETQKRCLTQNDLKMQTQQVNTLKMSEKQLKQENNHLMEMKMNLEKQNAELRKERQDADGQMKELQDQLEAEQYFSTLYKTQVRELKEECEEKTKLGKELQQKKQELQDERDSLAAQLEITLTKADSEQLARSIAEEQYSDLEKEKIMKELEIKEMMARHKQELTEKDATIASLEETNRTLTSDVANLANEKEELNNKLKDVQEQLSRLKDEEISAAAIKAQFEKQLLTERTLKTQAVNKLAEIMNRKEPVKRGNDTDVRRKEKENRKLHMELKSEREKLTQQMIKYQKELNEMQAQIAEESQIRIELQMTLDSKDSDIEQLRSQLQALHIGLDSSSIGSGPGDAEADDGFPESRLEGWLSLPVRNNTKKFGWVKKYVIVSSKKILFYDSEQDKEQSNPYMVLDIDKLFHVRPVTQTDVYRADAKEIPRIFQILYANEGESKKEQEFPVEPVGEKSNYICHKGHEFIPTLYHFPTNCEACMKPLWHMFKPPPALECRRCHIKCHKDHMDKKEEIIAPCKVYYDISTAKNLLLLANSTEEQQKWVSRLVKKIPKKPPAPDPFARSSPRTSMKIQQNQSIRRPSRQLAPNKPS
SMILES,IC50 (Uterus [1]) [nM],ROCK2 inhibition activity call (active/not active) [2],Emax (Uterus [1]) [%],inhibition (Uterus [3]),inhibition (Uterus [4])
CCOc1cc2c(cc1OCC)C(CCO)N(C(=S)Nc1cccc(C(F)(F)F)c1)CC2 (stereo not drawn),1080,–,84.7,–,–
C[C@@H](N)[C@H]1CC[C@H](C(=O)Nc2ccncc2)CC1 [Y-27632],505,–,82.3,–,–
COc1cc2c(cc1OC)C1C(C)CN1CC2 (stereo not drawn),8.24,inactive,43.7,–,–
CCOc1cc2c(cc1OCC)C1C(CO)CS/C(=N\c3ccc(C)cc3)N1CC2 (stereo not drawn),1170,–,82.5,–,–
COc1cc2c(cc1OC)C1C(Cc3ccccc3)CN1CC2 (stereo not drawn),788,–,57.2,–,–
COc1cc2c(cc1OC)C(C(CO)COC(=O)c1ccccc1)N(C(=S)Nc1ccccc1)CC2 (stereo not drawn),1190,–,83.5,–,–
COc1cc2c(cc1OC)C(CC#N)N(C(=O)Nc1cccc(C(F)(F)F)c1)CC2 (stereo not drawn),1250,–,72.2,–,–
COc1cc2c(cc1OC)C1C(COC(=O)Nc3ccccc3)CN1CC2 (stereo not drawn),495,–,54.5,–,–
COc1cc2c(cc1OC)C1CCO/C(=N\Cc3ccccc3)N1CC2 (stereo not drawn),522,–,55.1,–,–
COc1cc2c(cc1OC)C(C(CO)Cc1ccccc1)NCC2 (stereo not drawn),723,–,76.6,–,–
O=S(=O)(c1cccc2cnccc12)N1CCCNCC1 [FASUDIL],781,–,87.4,Active,Active
COc1ccc(CCNC2CCCCC2O)cc1OC (stereo not drawn),98.1,inactive,51.7,–,–
COc1cc2c(cc1OC)C(C(CO)COC(=O)c1ccccc1)N(CCC#N)CC2 (stereo not drawn),278,–,53.3,–,–
COc1cc2c(cc1OC)C(c1ccccc1)N(C1CCCC1O)CC2 (stereo not drawn),610,–,58.8,–,–
COc1ccc(Cc2nccc3cc(OC)c(OC)cc23)cc1OC [PAPAVERINE],420,–,98.5,–,–
CCOc1ccc(/C=C2\NCCc3cc(OCC)c(OCC)cc32)cc1OCC [DROTAVERINE],1940,–,88.8,–,–

# Now from value to compound, other results behind:
IC50 (Uterus [1]) [nM],ROCK2 inhibition activity call (active/not active) [2],SMILES,Emax (Uterus [1]) [%],inhibition (Uterus [3]),inhibition (Uterus [4])
263,–,COc1cc2c(cc1OC)C(C(CO)CO)N(C(=O)c1ccc(C(F)(F)F)cc1)CC2 (stereo not drawn),66.4,–,–
258,–,COc1cc2c(cc1OC)C1(C)N(CC2)C(c2ccccc2)=NN1c1ccc(Cl)cc1 (stereo not drawn),53.2,–,–
84.5,inactive,COc1cc2c(cc1OC)C(C(CO)CO)N(C1CCCC1)CC2 (stereo not drawn),54.5,–,–
41.8,Active,CCOc1ccc(CCN(CCO)C2CCCCC2O)cc1OCC (stereo not drawn),46.3,Active,Active
24.2,inactive,COc1cc2c(cc1OC)C(C1CCc3nc(N4CCOCC4)[nH]c(=O)c3C1)=NCC2 (stereo not drawn),47.3,–,–
32.2,inactive,C#CC[N+]12CCc3cc(OC)c(OC)cc3C1C(CO)C2 (stereo not drawn),54.5,–,–
90.2,inactive,COc1cc2c(cc1OC)C(C)N(C1CCCCC1O)CC2 (stereo not drawn),45.6,–,–
158,Active,COc1cc2c(cc1OC)C(C(CO)CO)N(C(=S)Nc1ccccc1)CC2 (stereo not drawn),52.5,Active,Active
191,–,COc1ccc(CCNC(=O)C(C)(C)C)cc1OC,52.8,–,–
37.1,inactive,CCOc1cc2c(cc1OCC)CN(C1CCCCC1O)CC2 (stereo not drawn),48,–,–
18.9,inactive,COc1ccc(CC[N+](C)(CCO)C2CCCCC2)cc1OC (stereo not drawn),49.6,–,–
13.3,inactive,COc1cc2c(cc1OC)C1C(CO)COC(=N)N1CC2 (stereo not drawn),50.4,–,–
